Columns and labels:
Assay type in all cases: in vivo
Kochia (Kochia scoparia) [1] = test: Test A preemergence; conditions: for Plant response rating, Kochia: 125 g ai/ha, preemergence, 0 to 100 scale (0 no effect, 100 complete control); for Kochia plant response rating (0 to 100 scale): 0 is no effect, 100 is complete control
In short: (§1)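 Treatment is preemergence as a directed soil spray after planting, or postemergence at the one- to two-leaf stage, with test chemical in a non-phytotoxic solvent mixture plus surfactant. Plants stay in the greenhouse about 10 d before visual injury scoring on a 0 to 100 scale versus untreated controls.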

[2] = tested on: barnyardgrass (Echinochloa crus-galli); test: Test A preemergence; conditions: for Plant response rating, Barnyardgrass: 125 g ai/ha, preemergence, 0 to 100 scale (0 no effect, 100 complete control); for Barnyardgrass plant response rating (0 to 100 scale): 0 is no effect, 100 is complete control
In short: as §1

[3] = tested on: giant foxtail (Setaria faberii); test: Test A preemergence; conditions: for Plant response rating, Foxtail, Giant: 125 g ai/ha, preemergence, 0 to 100 scale (0 no effect, 100 complete control); for Foxtail, Giant plant response rating (0 to 100 scale): 0 is no effect, 100 is complete control
In short: as §1

[4] = tested on: pigweed (Amaranthus retroflexus); test: Test A preemergence; conditions: for Plant response rating, Pigweed: 125 g ai/ha, preemergence, 0 to 100 scale (0 no effect, 100 complete control); for Pigweed plant response rating (0 to 100 scale): 0 is no effect, 100 is complete control
[5] = tested on: ragweed (common ragweed, Ambrosia elatior); test: Test A preemergence; conditions: for Plant response rating, Ragweed: 125 g ai/ha, preemergence, 0 to 100 scale (0 no effect, 100 complete control); for Ragweed plant response rating (0 to 100 scale): 0 is no effect, 100 is complete control
In short: as §1

[6] = tested on: ryegrass, Italian (Italian ryegrass, Lolium multiflorum); test: Test A preemergence; conditions: for Plant response rating, Ryegrass, Italian: 125 g ai/ha, preemergence, 0 to 100 scale (0 no effect, 100 complete control); for Ryegrass, Italian plant response rating (0 to 100 scale): 0 is no effect, 100 is complete control
In short: as §1

[7] = tested on: Galium (catchweed bedstraw, Galium aparine); test: Test A postemergence; conditions: postemergence; for Galium plant response rating: 125 g ai/ha, visual injury rating on 0 to 100 scale (0 no effect, 100 complete control), approx. 10 d; for Plant response rating, Galium: 500 g ai/ha, 0 to 100 scale, 0 no effect, 100 complete control
In short: as §1

Kochia (Kochia scoparia) [8] = test: Test A postemergence; conditions: postemergence; for Kochia plant response rating: 125 g ai/ha, visual injury rating on 0 to 100 scale (0 no effect, 100 complete control), approx. 10 d; for Plant response rating, Kochia: 500 g ai/ha, 0 to 100 scale, 0 no effect, 100 complete control
In short: as §1

[9] = tested on: barnyardgrass (Echinochloa crus-galli); test: Test A postemergence
In short: as §1

[10] = tested on: blackgrass (Alopecurus myosuroides); test: Test A postemergence
In short: as §1

corn (Zea mays) = test: Test A postemergence; conditions: postemergence; for Corn plant response rating: 125 g ai/ha, visual injury rating on 0 to 100 scale (0 no effect, 100 complete control), approx. 10 d; for Plant response rating, Corn: 500 g ai/ha, 0 to 100 scale, 0 no effect, 100 complete control
In short: as §1

[11] = tested on: giant foxtail (Setaria faberii); test: Test A postemergence; conditions: postemergence; for Foxtail, Giant plant response rating: 125 g ai/ha, visual injury rating on 0 to 100 scale (0 no effect, 100 complete control), approx. 10 d; for Plant response rating, Foxtail, Giant: 500 g ai/ha, 0 to 100 scale, 0 no effect, 100 complete control
In short: as §1

[12] = tested on: pigweed (Amaranthus retroflexus); test: Test A postemergence; conditions: postemergence; for Pigweed plant response rating: 125 g ai/ha, visual injury rating on 0 to 100 scale (0 no effect, 100 complete control), approx. 10 d; for Plant response rating, Pigweed: 500 g ai/ha, 0 to 100 scale, 0 no effect, 100 complete control
In short: as §1

[13] = tested on: ragweed (common ragweed, Ambrosia elatior); test: Test A postemergence; conditions: postemergence; for Ragweed plant response rating: 125 g ai/ha, visual injury rating on 0 to 100 scale (0 no effect, 100 complete control), approx. 10 d; for Plant response rating, Ragweed: 500 g ai/ha, 0 to 100 scale, 0 no effect, 100 complete control
In short: as §1

[14] = tested on: ryegrass, Italian (Italian ryegrass, Lolium multiflorum); test: Test A postemergence; conditions: postemergence; for Ryegrass, Italian plant response rating: 125 g ai/ha, visual injury rating on 0 to 100 scale (0 no effect, 100 complete control), approx. 10 d; for Plant response rating, Ryegrass, Italian: 500 g ai/ha, 0 to 100 scale, 0 no effect, 100 complete control
In short: as §1

[15] = tested on: wheat (Triticum aestivum); test: Test A postemergence; conditions: postemergence; for Wheat plant response rating: 125 g ai/ha, visual injury rating on 0 to 100 scale (0 no effect, 100 complete control), approx. 10 d; for Plant response rating, Wheat: 500 g ai/ha, 0 to 100 scale, 0 no effect, 100 complete control
In short: as §1

[16] = tested on: barnyardgrass (Echinochloa crus-galli); test: Test B flooded paddy test; conditions: Flood, 0 to 100 scale where 0 is no effect and 100 is complete control, 13 to 15 d
In short: (§2)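 Rating scale 0–100 (visual, vs untreated controls) after a 13–15 d greenhouse period; application to the flood layer, 3 cm above soil and maintained; plants at 2-leaf stage when treated.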

[17] = tested on: ducksalad (Heteranthera limosa); test: Test B flooded paddy test; conditions: Flood, 0 to 100 scale where 0 is no effect and 100 is complete control, 13 to 15 d
In short: as §2

rice (Oryra sativa) = test: Test B flooded paddy test; conditions: Flood, 0 to 100 scale where 0 is no effect and 100 is complete control, 13 to 15 d
In short: as §2

[18] = tested on: sedge, umbrella (small-flower umbrella sedge, Cyperus difformis); test: Test B flooded paddy test; conditions: Flood, 0 to 100 scale where 0 is no effect and 100 is complete control, 13 to 15 d
In short: as §2

[19] = 500 g ai/ha, postemergence, 0 to 100 scale, 0 no effect, 100 complete control
[20] = Postemergence, 125 g ai/ha, visual injury, 0 to 100 scale (0 no effect, 100 complete control), approx. 10 d
[21] = Preemergence, 500 g ai/ha, visual injury approx. 10 d
[22] = 125 g ai/ha, postemergence, visual injury rating on 0 to 100 scale (0 no effect, 100 complete control), approx. 10 d

O=C1NCC(c2cccc(OCC(F)F)c2)C1C(=O)Nc1ccccc1Cl (stereo not drawn) [Compound 390]
Plant response rating, Kochia (Kochia (Kochia scoparia) [1]): 0
Kochia plant response rating (0 to 100 scale) (Kochia (Kochia scoparia) [1]; Preemergence, 500 g ai/ha): 0
Plant response rating, Barnyardgrass [2]: 60
Barnyardgrass plant response rating (0 to 100 scale) ([2]; Preemergence, 500 g ai/ha): 80
Plant response rating, Foxtail, Giant [3]: 80
Foxtail, Giant plant response rating (0 to 100 scale) ([3]; Preemergence, 500 g ai/ha): 90
Plant response rating, Pigweed [4]: 0
Pigweed plant response rating (0 to 100 scale) ([4]; Preemergence, 500 g ai/ha): 0
Plant response rating, Ragweed [5]: 0
Ragweed plant response rating (0 to 100 scale) ([5]; Preemergence, 500 g ai/ha): 0
Plant response rating, Ryegrass, Italian [6]: 0
Ryegrass, Italian plant response rating (0 to 100 scale) ([6]; Preemergence, 500 g ai/ha): 0
Galium plant response rating [7]: 0
Plant response rating, Galium [7]: 0
Kochia plant response rating (Kochia (Kochia scoparia) [8]): 0
Plant response rating, Kochia (Kochia (Kochia scoparia) [8]): 0
Plant response rating, Barnyardgrass [9, 19]: 70
Plant response rating, Barnyardgrass [9, 20]: 50
Plant response rating, Blackgrass [10, 19]: 0
Plant response rating, Blackgrass [10, 20]: 0
Corn plant response rating (corn (Zea mays)): 0
Plant response rating, Corn (corn (Zea mays)): 0
Foxtail, Giant plant response rating [11]: 60
Plant response rating, Foxtail, Giant [11]: 80
Pigweed plant response rating [12]: 0
Plant response rating, Pigweed [12]: 20
Ragweed plant response rating [13]: 0
Plant response rating, Ragweed [13]: 0
Ryegrass, Italian plant response rating [14]: 0
Plant response rating, Ryegrass, Italian [14]: 10
Wheat plant response rating [15]: 0
Plant response rating, Wheat [15]: 0
Plant response rating, Barnyardgrass ([16]; 500 g ai/ha): 50
Plant response rating, Ducksalad ([17]; 500 g ai/ha): 65
Plant response rating, Rice (rice (Oryra sativa); 500 g ai/ha): 0
Plant response rating, Sedge, Umbrella ([18]; 500 g ai/ha): 0

O=C1NCC(c2cccc(OC(F)(F)C(F)F)c2)C1C(=O)Nc1ccccc1C(F)F (stereo not drawn) [Compound 391]
Plant response rating, Kochia (Kochia (Kochia scoparia) [1]): 30
Kochia plant response rating (0 to 100 scale) (Kochia (Kochia scoparia) [1]; Preemergence, 500 g ai/ha): 50
Plant response rating, Barnyardgrass [2]: 80
Barnyardgrass plant response rating (0 to 100 scale) ([2]; Preemergence, 500 g ai/ha): 90
Plant response rating, Foxtail, Giant [3]: 90
Foxtail, Giant plant response rating (0 to 100 scale) ([3]; Preemergence, 500 g ai/ha): 90
Plant response rating, Pigweed [4]: 70
Pigweed plant response rating (0 to 100 scale) ([4]; Preemergence, 500 g ai/ha): 70
Plant response rating, Ragweed [5]: 80
Ragweed plant response rating (0 to 100 scale) ([5]; Preemergence, 500 g ai/ha): 80
Plant response rating, Ryegrass, Italian [6]: 20
Ryegrass, Italian plant response rating (0 to 100 scale) ([6]; Preemergence, 500 g ai/ha): 50
Galium plant response rating [7]: 60
Plant response rating, Galium [7]: 60
Kochia plant response rating (Kochia (Kochia scoparia) [8]): 0
Plant response rating, Kochia (Kochia (Kochia scoparia) [8]): 60
Plant response rating, Barnyardgrass [9, 19]: 80
Plant response rating, Barnyardgrass [9, 20]: 60
Plant response rating, Blackgrass [10, 19]: 70
Plant response rating, Blackgrass [10, 20]: 50
Corn plant response rating (corn (Zea mays)): 40
Plant response rating, Corn (corn (Zea mays)): 70
Foxtail, Giant plant response rating [11]: 90
Plant response rating, Foxtail, Giant [11]: 90
Pigweed plant response rating [12]: 30
Plant response rating, Pigweed [12]: 50
Ragweed plant response rating [13]: 20
Plant response rating, Ragweed [13]: 30
Ryegrass, Italian plant response rating [14]: 30
Plant response rating, Ryegrass, Italian [14]: 40
Wheat plant response rating [15]: 0
Plant response rating, Wheat [15]: 50
Plant response rating, Barnyardgrass ([16]; 250 g ai/ha): 40
Plant response rating, Ducksalad ([17]; 250 g ai/ha): 100
Plant response rating, Rice (rice (Oryra sativa); 250 g ai/ha): 0
Plant response rating, Sedge, Umbrella ([18]; 250 g ai/ha): 0

CN1CC(c2ccc(C(F)(F)F)c(F)c2)C(C(=O)Nc2ccc(F)cc2F)C1=O (stereo not drawn) [Compound 398]
Plant response rating, Kochia (Kochia (Kochia scoparia) [1]): 70
Kochia plant response rating (0 to 100 scale, 0 is no effect, 100 is complete control) (Kochia (Kochia scoparia) [1]; [21]): 90
Plant response rating, Barnyardgrass [2]: 90
Barnyardgrass plant response rating (0 to 100 scale, 0 is no effect, 100 is complete control) [2, 21]: 90
Plant response rating, Foxtail, Giant [3]: 90
Foxtail, Giant plant response rating (0 to 100 scale, 0 is no effect, 100 is complete control) [3, 21]: 90
Plant response rating, Pigweed [4]: 70
Pigweed plant response rating (0 to 100 scale, 0 is no effect, 100 is complete control) [4, 21]: 90
Plant response rating, Ragweed [5]: 20
Ragweed plant response rating (0 to 100 scale, 0 is no effect, 100 is complete control) [5, 21]: 30
Plant response rating, Ryegrass, Italian [6]: 30
Ryegrass, Italian plant response rating (0 to 100 scale, 0 is no effect, 100 is complete control) [6, 21]: 70
Galium plant response rating [7]: 50
Plant response rating, Galium [7]: 60
Kochia plant response rating (Kochia (Kochia scoparia) [8]): 60
Plant response rating, Kochia (Kochia (Kochia scoparia) [8]): 80
Barnyardgrass plant response rating [9, 22]: 90
Plant response rating, Barnyardgrass [9, 19]: 90
Blackgrass plant response rating [10, 22]: 40
Plant response rating, Blackgrass [10, 19]: 60
Corn plant response rating (corn (Zea mays)): 60
Plant response rating, Corn (corn (Zea mays)): 70
Foxtail, Giant plant response rating [11]: 80
Plant response rating, Foxtail, Giant [11]: 90
Pigweed plant response rating [12]: 50
Plant response rating, Pigweed [12]: 60
Ragweed plant response rating [13]: 0
Plant response rating, Ragweed [13]: 0
Ryegrass, Italian plant response rating [14]: 20
Plant response rating, Ryegrass, Italian [14]: 50
Wheat plant response rating [15]: 20
Plant response rating, Wheat [15]: 70
Plant response rating, Barnyardgrass ([16]; 250 g ai/ha): 60
Plant response rating, Ducksalad ([17]; 250 g ai/ha): 80
Plant response rating, Rice (rice (Oryra sativa); 250 g ai/ha): 20
Plant response rating, Sedge, Umbrella ([18]; 250 g ai/ha): 0

Reference: patent publication US12077503B2, “Substituted cyclic amides and their use as herbicides” (FMC CORPORATION, priority 2015, dated 2024)
